In patent publication US4444769A, “Antihypertensive diuretic combination composition and associated method” (Mylan Pharmaceuticals, Inc., priority 1983, dated 1984):

Experiments:
[1] = administration of 100 mg; differently formulated compositions; cited from earlier work
[2] = test system: hypertensive individuals who had become hypokalemic
Procedure: In an effort to determine the minimum amount of triamterene needed to reverse the hypokalemia precipitated by hydrochlorothiazide, each subject was continued on hydrochlorothiazide, 50 mg/day administered in a separate tablet, and was also given one of the following daily dosages of triamterene, administered in suspension form throughout the testing period: 0 mg, 25 mg, 50 mg, 75 mg, and 100 mg.

Nc1nc(N)c2nc(-c3ccccc3)c(N)nc2n1 [triamterene, 2,4,7-triamino-6-phenylpteridine]
limit in absorptive capacity of the gastrointestinal tract, mean [1]: ~39%
reversal of hydrochlorothiazide-induced hypokalemia, response ([2]; about 75 mg triamterene with 50 mg hydrochlorothiazide): near maximal response
effectiveness for reversing hydrochlorothiazide-induced hypokalemia ([2]; upper ranges of the doses tested): particularly large in the upper ranges of the doses tested
